Assay results as given in patent US12109179B2, “Pharmaceutical compositions and combinations comprising inhibitors of the androgen receptor and uses thereof” (ESSA Pharma Inc., priority 2019, dated 2024).
One block for each molecule: values may come before it.

Tests used:
[1] = tested on: Androgen-induced PSA-luciferase (LNCaP cells); test: Androgen-induced PSA (6.1 kb)-luciferase reporter assay in LNCaP cells; format: cell-based; conditions: Homo sapiens, R1881 (1 nM) 24 h
Procedure: To determine the IC50, treatments were normalized to the maximum activity with androgen-induction (in the absence of test compounds, vehicle only) (Table 1).
Luciferase Assay: Lysates were thawed on ice then collected into V-bottom 96-well tissue culture plates. Lysates were centrifuged at 4° C. for 5 minutes at 4000 rpm. To measure luminescence of LNCaP cell lysates the Firefly Luciferase Assay System (Promega) was employed, according to manufacturer's protocol.
Comparisons between treatment and control groups were compared using Two-Way ANOVA with post-hoc Dunnett's and Tukey's tests. Differences were considered statistically significant at P values less than 0.05. Densitometric quantification of relative AR levels was determined by Image.

[2] = tested on: reporter constructs regulated by CMV promoter or AP-1 binding sites; test: Control reporter constructs (CMV promoter, AP-1 binding sites); format: cell-based
From the text: 2010, and Myung et al., J Clin Invest. 2013.

[3] = tested on: PSA protein; test: Western blot of PSA protein in LNCaP lysates; format: cell-based; conditions: ATRA (10 μM), R1881 (1 nM) 24 h
[4] = tested on: LN95-D3 cells; test: Cell cycle analysis of LN95-D3 cells; format: cell-based; conditions: 1.5% charcoal-stripped serum
Procedure: Flow cytometry: Fixed cells were probed with anti-BrdU-FITC antibody (BD Biosciences) and stained with 7AAD (Sigma). Data was acquired on a FACSCalibur flow cytometer (BD Biosciences) with CellQUEST Pro and later analyzed using FlowJo V10 software.
After incubating with the compounds, cells were labelled with BrdU for 2 h and then processed for flow cytometry.

[5] = tested on: AR transcriptional activity (PSA (6.1 kb)-luciferase, LNCaP cells); test: PSA (6.1 kb)-luciferase assay with Pin1 inhibitors and AR NTD inhibitors (Examples 36-37); format: cell-based; conditions: for IC50: Homo sapiens, 24 h
Procedure: Statistical analyses: Statistical significance was determined with GraphPad Prism 8 software using two-way ANOVA with Dunnett's multiple comparisons test unless indicated otherwise; *P<0.05, **P<0.01, ***P<0.001; ns, not significant.
Data shown in Figures are the means±SE from 4 independent experiments.

[6] = tested on: AR-positive breast cancer cell lines; test: Cell proliferation (BrdU) and viability (alamarBlue) of breast cancer cell lines; format: cell-based; conditions: BrdU 4 days (enzalutamide 10 μM, EPI-002 35 μM); alamarBlue 2 or 3 days
Procedure: Cell Proliferation and Viability Assay: Each breast cancer cell line was plated at 5,000 cells per well in a 96-well plate in culture medium containing 5% or 10% fetal bovine serum. […] For proliferation assay, cells were treated for 4 days and labeled with BrdU for 2 hours. Incorporation of BrdU was measured by enzyme-linked immunosorbent assay (ELISA; Cell Proliferation ELISA, BrdU (colorimetric) from Roche). For cell viability assays, alamarBlue was used for assess cell viability after 2 or 3 days of treatment.
BrdU incorporation was used to assess cell proliferation.
AlamarBlue was used to assess cell viability. Results are presented as mean±SEM (n=3 except n=6 for LNCaP).

[7] = tested on: C4-2B-MDVR; test: Colony formation, C4-2B-MDVR; format: cell-based, human
[8] = tested on: LN95 cells; test: Senescence-associated β-gal staining of LN95 cells; format: cell-based; conditions: 1.5% charcoal-stripped serum, 3 days
Procedure: β-galactosidase staining: Cells grown in chamber slides and treated with compounds were fixed at room temperature with 2% formaldehyde/0.2% glutaraldehyde, and then incubated at 37° C. with fresh β-gal staining solution (Cell Signaling) titrated to pH 6.0. Staining was optimal after incubating the slides overnight for 16-18 hours.
Results shown are representative of 3 independent experiments.

[9] = tested on: LNCaP95 cells; test: γH2AX DNA damage in LNCaP95 cells with or without irradiation; format: cell-based; conditions: ENZ 5 μM, with or without irradiation (4Gy), 48 h
Procedure: Further, cells were labelled for γH2AX and 7AAD and analyzed by flow cytometry (FIG. 12B). The percentage of cells containing above 10 γH2AX foci (mean±SD from three independent experiments) are represented in FIG. 12C.
Flow Cytometry: Cell cycle analysis was conducted by flow cytometry using BrdU-FITC and 7AAD. DNA damage was analyzed using γH2AX antibody (CST) and 7AAD. Cells were analyzed on FACScalibur flow cytometer.
Immunofluorescence staining: γH2AX antibody (Millipore mouse), Alexa488 anti-mouse antibody were used for staining. Cells were analyzed on Axio observer (×20 magnification) equipped with epitome 2.
Statistical analysis: Graphs represent the means±SEM from three independent experiments performed with three technical replicates. Statistical significance was determined using GraphPad Prism software with a one-way ANOVA; *P<0.05, **P<0.01, ***P<0.001, ****P<0.0001.

[10] = tested on: mCRPC patients with bone metastases; conditions: cited from earlier work

SMILES: CC1=C(/C=C/C(C)=C/C=C/C(C)=C/C(=O)O)C(C)(C)CCC1 [ATRA, all-trans retinoic acid]
inhibitory effects on CMV promoter or AP-1 reporter constructs [2]: No inhibitory effects | androgen-induced expression of PSA protein [3]: decreased | cell cycle effect [4]: arrested cells in G1 and decreased the S phase population in a dose-dependent manner

SMILES: CC(C)(c1ccc(OC[C@H](O)Cn2ccnc2)cc1)c1cc(Cl)c(OC[C@H](O)CCl)c(Cl)c1 [Compound 9a]
IC50 [1]: 3120 nM

SMILES: CC(C)(c1ccc(OC[C@H](O)CN)cc1)c1cc(Cl)c(OC[C@H](O)CCl)c(Cl)c1 [Compound 12a, (R)-1-amino-3-(4-(2-(3,5-dichloro-4-((S)-3-chloro-2-hydroxypropoxy)phenyl)propan-2-yl)phenoxy)propan-2-ol]
IC50 [1]: 2260 nM

SMILES: CC1=C(/C=C/C(C)=C/C=C/C(C)=C\C(=O)O)C(C)(C)CCC1 [Compound 13CisRA]
inhibitory effects on CMV promoter or AP-1 reporter constructs [2]: No inhibitory effects

SMILES: CC(C)(c1ccc(OC[C@H](O)CO)cc1)c1ccc(OC[C@H](O)CCl)cc1 [EPI-002]
IC50 [5]: 7900 ± 1200 nM | decrease in IC50 values in the presence of ATRA ([5]; PSA (6.1 kb)-luciferase): 2 fold | effect of combination with ATRA on inhibiting AR transcriptional activity ([5]; PSA (6.1 kb)-luciferase, R1881 (1 nM)): synergistic effect | cell proliferation and viability [6]: significantly inhibited | colony formation, combination with Enzalutamide [7]: reduced colony formation | combination with ATRA: G1 arrest and decrease of S phase population [4]: synergistic | percentage of β-gal-positive cells, combination with ATRA [8]: synergy

SMILES: CNC(=O)c1ccc(N2C(=S)N(c3ccc(C#N)c(C(F)(F)F)c3)C(=O)C2(C)C)cc1F [Enzalutamide, enzalutamide]
percentage of cells containing above 10 γH2AX foci [9]: no effect | combination with ATRA: G1 arrest and decrease of S phase population [4]: not

SMILES: [Cl][223Ra][Cl] [radium 223 dichloride]
increase overall survival (OS) [10]: approximately 3 months

Further molecules by falling IC50 [1], results first:

IC50 [1]: 1410 nM
SMILES: CC(C)(c1ccc(OC[C@H](O)CO)cc1)c1cc(Cl)c(OC[C@H](O)CCl)c(Cl)c1 [Compound 1a]

IC50 [1]: 1050 nM | IC50 [5]: 740 ± 1200 nM
SMILES: CC(C)(c1ccc(OC[C@H](O)CNS(C)(=O)=O)cc1)c1cc(Cl)c(OC[C@H](O)CCl)c(Cl)c1 [Compound 13a]

IC50 [1]: 1050 nM
SMILES: CC(C)(c1ccc(OC[C@H](O)CN2CCOCC2)cc1)c1cc(Cl)c(OC[C@H](O)CCl)c(Cl)c1 [Compound 11a]

IC50 [1]: 1030 nM
SMILES: COC[C@@H](O)COc1ccc(C(C)(C)c2cc(Cl)c(OC[C@H](O)CCl)c(Cl)c2)cc1 [Compound 5a]

IC50 [1]: 950 nM
SMILES: CCS(=O)(=O)C[C@@H](O)COc1ccc(C(C)(C)c2cc(Cl)c(OC[C@H](O)CCl)c(Cl)c2)cc1 [Compound 14a]

IC50 [1]: 368 nM
SMILES: CC(=O)C(=O)Nc1ccc(C(C)(C)c2cc(Cl)c(OCCCCl)c(Cl)c2)cc1 [AA85]

IC50 [1]: 344 nM
SMILES: COCC(=O)COc1ccc(C(C)(C)c2cc(Cl)c(OCC(O)CCl)c(Cl)c2)cc1 (stereo not drawn) [AA56]

IC50 [1]: 74 nM
SMILES: CC(O)(CCl)COc1c(Cl)cc(C(C)(C)c2ccc(OCC(=O)CNS(C)(=O)=O)cc2)cc1Cl (stereo not drawn) [AA52]

IC50 [1]: 51 nM
SMILES: CC(C)(c1ccc(OCC(=O)CNS(C)(=O)=O)cc1)c1cc(Cl)c(OCCCCl)c(Cl)c1 [AA31, N-(3-(4-(2-(3,5-dichloro-4-(3-chloropropoxy)phenyl)propan-2-yl)phenoxy)-2-oxopropyl)methanesulfonamide]

IC50 [1]: 38 nM
SMILES: CC(C)(c1ccc(OCC(=O)CNS(C)(=O)=O)cc1)c1cc(Cl)c(OCCCl)c(Cl)c1 [AA33]
